# Patent EP1105395B1, “PHOTOCYCLIZED RAPAMYCINS” (priority 1998, dated 2000)
# Read-outs that look alike come from different tables or passages of the source.
# Assays:
# Format in all cases: cell-based
# Candida rugosa = assay: Antifungal activity, microtiter broth dilution MIC; details: Candida rugosa ID 94-10, 35 °C, 24-48 hours
# Description: (§1) Antifungal activity for the compounds of this invention was established by evaluating a representative compound of this invention (Compound I) against several strains of fungi. Briefly the following procedure was used to evaluate such activity. A 96 U-bottom microtiter plate was filled (50 µl/well) with RPMI 1640. The compounds to be evaluated were placed in appropriate wells, and serial diluted in successive wells to provide 11 dilutions. The concentrations ranged from 64 through 0.06 µg/ml. An adjusted inoculum of fungi (50 µl) was added to each well and the plates were incubated at 35 °C for 24-48 hours. […]
# Aspergillus fumigatus = assay: Antifungal activity, microtiter broth dilution MIC; details: Aspergillus fumigatus ID ATCC 26933, 35 °C, 24-48 hours
# Description: as §1
# Cryptococcus neoformans = assay: Antifungal activity, microtiter broth dilution MIC; details: Cryptococcus neoformans ID ATCC 90112, 35 °C, 24-48 hours
# Description: as §1
# Aspergillus flavus = assay: Antifungal activity, microtiter broth dilution MIC; details: Aspergillus flavus ID ATCC 12963, 35 °C, 24-48 hours
# Description: as §1
# Candida albicans = assay: Antifungal activity, microtiter broth dilution MIC; details: 35 °C, 24-48 hours
# Description: as §1
# Candida krussii = assay: Antifungal activity, microtiter broth dilution MIC; details: Candida krussii ID 94-2, 35 °C, 24-48 hours
# Description: as §1
# Candida glabrata = assay: Antifungal activity, microtiter broth dilution MIC; details: Candida glabrata ID ATCC 90030, 35 °C, 24-48 hours
# Description: as §1
# [1] = tested on: Filobasidiella neoformans; assay: Antifungal activity, microtiter broth dilution MIC; details: Filobasidiella neoformans ID ATCC 7472, 35 °C, 24-48 hours
# Description: as §1
# Candida lusitaniae = assay: Antifungal activity, microtiter broth dilution MIC; details: Candida lusitaniae ID 94-3, 35 °C, 24-48 hours
# Description: as §1
# Candida zeylanoided = assay: Antifungal activity, microtiter broth dilution MIC; details: Candida zeylanoided ID 94-15, 35 °C, 24-48 hours
# Description: as §1
# Aspergillus niger = assay: Antifungal activity, microtiter broth dilution MIC; details: Aspergillus niger ID S-430, 35 °C, 24-48 hours
# Description: as §1
# Candida parapsilosis = assay: Antifungal activity, microtiter broth dilution MIC; details: 35 °C, 24-48 hours
# Description: as §1
# Candida tropicalis = assay: Antifungal activity, microtiter broth dilution MIC; details: 35 °C, 24-48 hours
# Description: as §1
# Saccharomyces cerevisiae = assay: Antifungal activity, microtiter broth dilution MIC; details: Saccharomyces cerevisiae ID ATCC 2601, 35 °C, 24-48 hours
# Description: as §1
# Candida pseudotropicalis = assay: Antifungal activity, microtiter broth dilution MIC; details: Candida pseudotropicalis ID ATCC 28838, 35 °C, 24-48 hours
# Description: as §1
# [2] = tested on: A2780DDP (ovarian - resistant to cis-platin); assay: Antineoplastic activity, tumor cell growth inhibition (sulforhodamine B); details: A2780DDP cells, 48 hours, inhibition of growth
# Text: (§2) Antineoplastic activity for the compounds of this invention was established by evaluating the antineoplastic activity of a representative compound of this invention (Compound I) against six tumor cell lines in vitro. Briefly, tumor cells from six cell lines were placed in wells of a 96 well microtiter plate. The following tumor cell lines were used: A2780S (ovarian), A2780DDP (ovarian - resistant to cis-platin), A431 (vulva epidermoid origin), SW620 (colon), SKBR3 (breast), and MDA-MB-435 (breast). The tumors cells were grown in the presence of serial dilutions of the compound to be evaluated for 48 hours, and cell growth determined using a colorimetric procedure (sulforhrodamine B). The inhibition of growth was calculated compared to the number of cells at the time of test compound addition. Results are expressed as an IC50 (µg/ml). […] In particular, the compounds of this invention are useful against solid tumors, including sarcomas and carcinomas; and more particularly against astrocytomas, prostate cancer, breast cancer, colon cancer, small cell lung cancer, and ovarian cancer; and adult T-cell leukemia/lymphoma.
# A2780S (ovarian) = assay: as above; details: A2780S cells, 48 hours, inhibition of growth
# Text: as §2
# SW620 (colon) = assay: as above; details: SW620 cells, 48 hours, inhibition of growth
# Text: as §2
# MDA-MB-435 (breast) = assay: as above; details: MDA-MB-435 cells, 48 hours, inhibition of growth
# Text: as §2
# SKBR3 (breast) = assay: as above; details: SKBR3 cells, 48 hours, inhibition of growth
# Text: as §2
# [3] = tested on: A431 (vulva epidermoid origin); assay: as above; details: A431 cells, 48 hours, inhibition of growth
# Text: as §2
# [4] = Candida parapsilosis ID ATCC 90018
smiles,measurement,setting,value
OC(Cn1cncn1)(Cn1cncn1)c1ccc(F)cc1F [Fluconazole],MIC,"Candida rugosa; Diutina rugosa, read-out: MIC",2 mg/L
same,MIC,"Aspergillus fumigatus; ATCC26933, read-out: MIC",> 16 mg/L
same,MIC,"Cryptococcus neoformans; ATCC90112, read-out: MIC",8 mg/L
same,MIC,"Aspergillus flavus; ATCC12963, read-out: MIC",> 16 mg/L
same,MIC,"Candida albicans; Candida albicans, ATCC90028, Candida albicans ID ATCC 90028, read-out: MIC",≥ 16 mg/L
same,MIC,"Candida albicans; Candida albicans, Candida albicans ID 94-1, read-out: MIC",≥ 16 mg/L
same,MIC,"Candida albicans; Candida albicans, Candida albicans ID 1063, read-out: MIC",4 mg/L
same,MIC,"Candida albicans; Candida albicans, Candida albicans ID 1117, read-out: MIC",8 mg/L
same,MIC,"Candida albicans; Candida albicans, Candida albicans ID C-83, read-out: MIC",≥ 16 mg/L
same,MIC,Candida krussii; read-out: MIC,≥ 16 mg/L
same,MIC,"Candida glabrata; Nakaseomyces glabratus, ATCC90030, read-out: MIC",4 mg/L
same,MIC,"[1]; Cryptococcus neoformans, ATCC7472, read-out: MIC",16 mg/L
same,MIC,"Candida lusitaniae; Clavispora lusitaniae, read-out: MIC",1 mg/L
same,MIC,Candida zeylanoided; read-out: MIC,≥ 16 mg/L
same,MIC,Aspergillus niger; read-out: MIC,> 16 mg/L
same,MIC,"Candida parapsilosis; Lodderomyces parapsilosis, ATCC90018, Candida parapsilosis ID ATCC 90018, read-out: MIC",0.5 mg/L
same,MIC,"Candida parapsilosis; Lodderomyces parapsilosis, Candida parapsilosis ID 94-8, read-out: MIC",0.5 mg/L
same,MIC,"Candida parapsilosis; Lodderomyces parapsilosis, Candida parapsilosis ID 94-9, read-out: MIC",0.5 mg/L
same,MIC,Candida tropicalis; Candida tropicalis ID 94-13,≥16 mg/L
same,MIC,"Candida tropicalis; Candida tropicalis ID 94-14, read-out: MIC",≥ 16 mg/L
same,MIC,"Saccharomyces cerevisiae; ATCC2601, read-out: MIC",8 mg/L
same,MIC,"Candida pseudotropicalis; Kluyveromyces marxianus, ATCC28838, read-out: MIC",≤ 0.12 mg/L
C[C@@H]1[C@H](O)[C@@H](C)/C=C/C=C/CC/C=C/C=C/C=C/C=C/C(O[C@H]2O[C@H](C)[C@@H](O)[C@H](N)[C@@H]2O)CC2O[C@](O)(CC(O)C(O)CCC(O)CC(O)CC(O)CC(=O)O[C@H]1C)CC(O)C2C(=O)O (some centres unmarked) [Nystatin],MIC,Candida rugosa,2 mg/L
same,MIC,Aspergillus fumigatus,1 mg/L
same,MIC,Cryptococcus neoformans,0.5 mg/L
same,MIC,Aspergillus flavus,≥16 mg/L
same,MIC,Candida albicans; Candida albicans ID 94-1,2.0 mg/L
same,MIC,Candida albicans; Candida albicans ID 1063,2 mg/L
same,MIC,Candida albicans; Candida albicans ID 1117,1 mg/L
same,MIC,Candida albicans; Candida albicans ID ATCC 90028,1 mg/L
same,MIC,Candida albicans; Candida albicans ID C-83,2 mg/L
same,MIC,Candida krussii,2 mg/L
same,MIC,Candida glabrata,1 mg/L
same,MIC,[1],0.5 mg/L
same,MIC,Candida lusitaniae,1 mg/L
same,MIC,Candida zeylanoided,1 mg/L
same,MIC,Aspergillus niger,4 mg/L
same,MIC,Candida parapsilosis; Candida parapsilosis ID 94-8,1 mg/L
same,MIC,Candida parapsilosis; Candida parapsilosis ID 94-9,1 mg/L
same,MIC,Candida parapsilosis; [4],1 mg/L
same,MIC,Candida tropicalis; Candida tropicalis ID 94-13,1 mg/L
same,MIC,Candida tropicalis; Candida tropicalis ID 94-14,2 mg/L
same,MIC,Saccharomyces cerevisiae,2 mg/L
same,MIC,Candida pseudotropicalis,1 mg/L
"CO[C@H]1C[C@@H]2CC[C@@H](C)[C@@](O)(O2)[C@]2(O)C(=O)N3[C@@H](CCC[C@@H]32)C(=O)O[C@H]([C@H](C)C[C@@H]2CC[C@@H](O)[C@H](OC)C2)CC(=O)[C@H](C)/C=C(\C)[C@@H](O)[C@@H](OC)C(=O)[C@H](C)C[C@H](C)/C=C/C=C/C=C/1C [Compound I, (1S, 2R, 3R, 6S, 8S, 9E, 11E, 13E, 15S, 17R, 19R, 20R, 21E, 23R, 26S, 29S, 33R)-1,2, 30-Trihydroxy-26-[(1R)-2-[(1S, 3R, 4R)-4-hydroxy-3-methoxycyclohexyl]-1-methylethyl]-8, 19-dimethoxy-3,9,15, 17, 21, 23-hexamethyl-27, 36-dioxa-35-azatetracyclo[27.4.2.1.[2, 6].0 [33, 35]] hexatriaconta-9, 11, 13, 21-tetraene-18, 24, 28, 34-tetrone]",MIC,Candida rugosa,16 mg/L
same,MIC,Aspergillus fumigatus,≥64 mg/L
same,MIC,Cryptococcus neoformans,8 mg/L
same,MIC,Aspergillus flavus,≥64 mg/L
same,MIC,Candida albicans; Candida albicans ID 94-1,16 mg/L
same,MIC,Candida albicans; Candida albicans ID 1063,16 mg/L
same,MIC,Candida albicans; Candida albicans ID 1117,32 mg/L
same,MIC,Candida albicans; Candida albicans ID ATCC 90028,16 mg/L
same,MIC,Candida albicans; Candida albicans ID C-83,≥64 mg/L
same,MIC,Candida glabrata,8 mg/L
same,MIC,[1],≥64 mg/L
same,MIC,Candida lusitaniae,4 mg/L
same,MIC,Candida zeylanoided,8 mg/L
same,MIC,Aspergillus niger,≥64 mg/L
same,MIC,Candida parapsilosis; Candida parapsilosis ID 94-8,8 mg/L
same,MIC,Candida parapsilosis; Candida parapsilosis ID 94-9,8 mg/L
same,MIC,Candida parapsilosis; [4],8 mg/L
same,MIC,Candida tropicalis; Candida tropicalis ID 94-13,16 mg/L
same,MIC,Candida tropicalis; Candida tropicalis ID 94-14,8 mg/L
same,MIC,Saccharomyces cerevisiae,8 mg/L
same,MIC,Candida pseudotropicalis,4 mg/L
same,IC50,[2],6.51 mg/L
same,IC50,A2780S (ovarian),8.756 mg/L
same,IC50,SW620 (colon),24.84 mg/L
same,IC50,MDA-MB-435 (breast),27.28 mg/L
same,IC50,SKBR3 (breast),7.029 mg/L
same,IC50,[3],20.46 mg/L
